{"source": "patent US20260023004A1", "about": "“SIGNAL ENHANCEMENT OF RESONANT SENSOR FOR CELL MEASUREMENTS” (lowa State University Research Foundation, Inc., priority 2022, published 2026)", "tested_on": "HeLa cells", "experiment": "Inhibition of HeLa cell growth monitored by resonant sensor frequency shift and microscope images", "type": "cell-based", "settings": "Niclosamide at 15 μM in culture media", "procedure": "To investigate the inhibition effect of cell growth on the sensor response, HeLa cells were first grown until a drastic resonant frequency shift was observed. FIG. 11 is a plot of resonant frequency as a function of time shown as curve 537. Four times are identified as 5, 6, 7, and 8. FIG. 12 is a cell image at time 5 of FIG. 11. Niclosamide was introduced at time 6 of FIG. 11 into the culture media at 15 μM. […] FIG. 13 is a cell image at time 6 of FIG. 11. FIG. 14 is a cell image at time 7 of FIG. 11. FIG. 15 is a cell image at time 8 of FIG. 11."}
{"smiles": "O=C(Nc1ccc([N+](=O)[O-])cc1Cl)c1cc(Cl)ccc1O", "note": "[Niclosamide]", "values": [{"measurement": "resonant frequency shift of sensor after introducing drug", "setting": "HeLa cells grown until drastic resonant frequency shift", "result": "almost an instantaneous stop in the resonant frequency shift"}, {"measurement": "cell growth after introducing the drug (microscopic images)", "setting": "HeLa cells", "result": "stop of cell growth"}]}
